Assay [1] relates to KB cells. The assay is described as follows: In vitro activity in KB cells (3H-thymidine incorporation). It counts as cell-based. Conditions: 3H-thymidine incorporation relative to untreated controls. The procedure:
Cells were seeded in 24-well Falcon plates and allowed to form nearly confluent monolayers overnight. After one rinse with 1 mL of fresh FFRPMI/HIFCS, each well received 1 mL, of medium containing increasing concentrations of test agent (3 wells per sample). Cells were pulsed with targeted agents for 2 hr at 37° C., rinsed 4 times with 0.5 mL of medium, and then chased in 1 mL of fresh medium up to 70 hr. Cells were treated with non-targeted agent EC0347 for a continuous 72 h. Spent medium was aspirated from all wells and replaced with fresh medium containing 5 μCi/mL ^3H-thymidine. After a further 2 hr 37° C. incubation, cells were washed 3 times with 0.5 mL of PBS and then treated with 0.5 mL of ice-cold […] per well. After 15 min, the trichloroacetic acid was aspirated and the cell material solubilized by the addition of 0.5 mL of 0.25 N sodium hydroxide for 15 min. Four hundred and fifty microliters of each solubilized sample were transferred to scintillation vials containing 3 mL of Ecolume scintillation cocktail and then counted in a liquid scintillation counter. Final tabulated results were expressed as the percentage of ^3H-thymidine incorporation relative to untreated controls and IC50 values calculated using Graphpad Prism software.

For assay [2], the system named is subcutaneous KB tumors. The assay is described as follows: Antitumor activity in KB tumor model. It counts as in vivo, Female Balb/c nu/nu mice. The settings on record: FIG. 1; 2 μmol/kg, single-dose; n=5; mice with subcutaneous KB tumors. As for the experimental part:
Female Balb/c nu/nu mice were fed ad libitum with folate-deficient chow (Harlan diet #TD01013) for the duration of the experiment. KB tumor cells were inoculated subcutaneously at the right flank of each mouse. Mice were dosed after the tumors have reached a range of 107-152 mm^3 through the lateral tail vein under sterile conditions in a volume of 200 μL of phosphate-buffered saline (PBS).
Growth of each s.c. tumor was followed by measuring the tumor two times per week. Tumors were measured in two perpendicular directions using Vernier calipers, and their volumes were calculated as 0.5×L×W^2, where L=measurement of longest axis in mm and W=measurement of axis perpendicular to L in mm.

Structures are written as SMILES.

As usually defined, the IC50 is the point on the concentration scale where inhibition reaches its midpoint. High values mean weaker potency, low ones greater potency.

As for `C#CCN(Cc1ccc2nc(N)[nH]c(=O)c2c1)c1ccc(C(=O)N[C@@H](CCC(=O)OCCSSC[C@H](NC(=O)[C@H](CCC(=O)NC[C@H](O)[C@@H](O)[C@H](O)[C@H](O)CO)NC(=O)[C@H](CCC(=O)O)NC(=O)[C@H](CCC(=O)NC[C@H](O)[C@@H](O)[C@H](O)[C@H](O)CO)NC(=O)[C@H](CCC(=O)O)NC(=O)[C@H](CCC(=O)NC[C@H](O)[C@@H](O)[C@H](O)[C@H](O)CO)NC(=O)CCSSCCOC(=O)NNC(=O)[C@@H](C)C[C@H](Cc2ccc(O)cc2)NC(=O)c2csc([C@@H](C[C@H](C(C)C)N(COC(=O)CCC)C(=O)[C@@H](NC(=O)[C@H]3CCCCN3C)C(C)CC)OC(C)=O)n2)C(=O)O)C(=O)O)cc1` (stereo partly drawn) [EC2133], the IC50 in assay [1] (targeted agents pulsed 2 hr at 37° C., chased up to 70 hr) stood at 0.8 nM. Besides, the “cure (number of mice)” value in assay [2] is listed as 1. Consider `CCCC(=O)OCN(C(=O)[C@@H](NC(=O)[C@H]1CCCCN1C)C(C)CC)[C@H](C[C@@H](OC(C)=O)c1nc(C(=O)N[C@@H](Cc2ccc(O)cc2)C[C@H](C)C(=O)NN)cs1)C(C)C` (stereo partly drawn) [EC0347, Tubulysin B Hydrazide, reference compound], for which the IC50 in assay [1] (Homo sapiens, non-targeted agent, continuous 72 h) came to 1.5 nM.

Source of the values: patent US20180110871A1, “DUAL DISULFIDE DRUG CONJUGATES” (ENDOCYTE, INC., priority 2015, published 2018).
